# Laboratory results from patent US10800782B2, “Inhibitors of cellular metabolic processes” (Agios Pharmaceuticals, Inc., priority 2016, dated 2020).
# Biological target: T1, MAT2A (Homo sapiens, UniProt P31153)
# T1 construct: His6; made in house; host or cells: SF9 insect cells
# Test: MAT2A biochemical assay (colorimetric inorganic phosphate detection, PiColorLock)
# Conditions: recombinant His6-tagged MAT2A 1 μg/ml; 60 minutes preincubation at 25° C.; L-Met 80 μM, ATP 100 μM; 60 minutes reaction; read at 623 nm; read-out: MAT2A Inhibition Score
# In short: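 Colorimetric malachite green readout of phosphate released when MAT2A turns over L-Met and ATP, after 60 min at room temperature. Enzyme: SF9-expressed His6-tagged MAT2A at 1 μg/ml. Buffer: Tris pH 8.0, 50 mM KCl, 15 mM MgCl2, 300 uM EDTA, 0.005% BSA. Compounds tested as ten-point three-fold dilutions.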
# T1 sequence (P31153 whole entry): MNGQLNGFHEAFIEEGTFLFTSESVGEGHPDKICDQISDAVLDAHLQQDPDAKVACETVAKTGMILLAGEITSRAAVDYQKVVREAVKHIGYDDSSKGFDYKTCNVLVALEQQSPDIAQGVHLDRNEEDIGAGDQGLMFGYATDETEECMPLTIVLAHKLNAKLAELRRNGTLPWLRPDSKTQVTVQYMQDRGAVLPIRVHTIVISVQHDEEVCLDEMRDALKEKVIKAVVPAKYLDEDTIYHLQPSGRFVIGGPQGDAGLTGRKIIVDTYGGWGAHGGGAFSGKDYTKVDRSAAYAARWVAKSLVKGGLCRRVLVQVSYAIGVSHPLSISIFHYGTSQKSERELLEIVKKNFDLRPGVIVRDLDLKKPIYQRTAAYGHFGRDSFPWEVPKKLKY
row,SMILES,IC50 [nM]
1,"Cc1[nH]c2c(-c3ccccc3)c(-c3ccccc3)nn2c(=O)c1-c1ccc2c(c1)NC(=O)CO2 [Compound 257, 6-(5-methyl-7-oxo-2,3-diphenyl-4,7-dihydropyrazolo[1,5-a]pyrimidin-6-yl)-2H-benzo[b][1,4]oxazin-3 (4H)-one]",< 100
2,"Cc1[nH]c2c(-c3ccccc3)c(-c3ccccc3)nn2c(=O)c1-c1ccc2c(c1)NCCO2 [Compound 258, 6-(3,4-dihydro-2H-benzo[b][1,4]oxazin-6-yl)-5-methyl-2,3-diphenylpyrazolo[1,5-a]pyrimidin-7(4H)-one]",< 100
3,"COc1cc(-c2c(C)[nH]c3c(-c4ccccc4)c(-c4ccccc4)nn3c2=O)ccc1O [Compound 259, 6-(4-hydroxy-3-methoxyphenyl)-5-methyl-2,3-diphenylpyrazolo[1,5-a]pyrimidin-7(4H)-one]",< 100
4,"Cc1[nH]c2c(-c3ccccc3)c(-c3ccccc3)nn2c(=O)c1-c1ccc(O)c(O)c1 [Compound 260, 6-(3,4-dihydroxyphenyl)-5-methyl-2,3-diphenylpyrazolo[1,5-a]pyrimidin-7(4H)-one]",< 100
5,"Cc1[nH]c2c(-c3ccccc3)c(-c3ccccc3)nn2c(=O)c1-c1ccc(O)c(OCCO)c1 [Compound 261, 6-(4-hydroxy-3-(2-hydroxyethoxy)phenyl)-5-methyl-2,3-diphenylpyrazolo[1,5-a]pyrimidin-7(4H)-one]",< 100
6,"Cc1[nH]c2c(N3CCCCC3)c(-c3ccccc3)nn2c(=O)c1-c1ccc(O)cc1 [Compound 262, 6-(4-hydroxyphenyl)-5-methyl-2-phenyl-3-(piperidin-1-yl)pyrazolo[1,5-a]pyrimidin-7(4H)-one]",< 100
7,"O=C(NCc1[nH]c2c(-c3ccccc3)c(-c3ccccc3)nn2c(=O)c1-c1ccc2ncccc2c1)C(F)(F)F [Compound 263, 2,2,2-trifluoro-N-((7-oxo-2,3-diphenyl-6-(quinolin-6-yl)-4,7-dihydropyrazolo[1,5-a]pyrimidin-5-yl)methyl)acetamide]",< 100
8,"COc1ccc(-c2c(CNc3nc[nH]n3)[nH]c3c(-c4ccccc4)c(-c4ccccc4)nn3c2=O)cc1 [Compound 264, 5-(((1H-1,2,4-triazol-3-yl)amino)methyl)-6-(4-methoxyphenyl)-2,3-diphenylpyrazolo[1,5-a]pyrimidin-7(4H)-one]",< 100
9,"Cc1[nH]c2c(C3=CCC(F)(F)CC3)c(-c3ccccc3)nn2c(=O)c1-c1ccc2ncccc2c1 [Compound 265, 3-(4,4-difluorocyclohex-1-en-1-yl)-5-methyl-2-phenyl-6-(quinolin-6-yl)pyrazolo[1,5-a]pyrimidin-7(4H)-one]",< 100
10,"Cc1[nH]c2c(N3CCCCC3)c(-c3ccccc3)nn2c(=O)c1-c1cn[nH]c1 [Compound 266, 5-methyl-2-phenyl-3-(piperidin-1-yl)-6-(1H-pyrazol-4-yl)pyrazolo[1,5-a]pyrimidin-7(4H)-one]",< 100
11,"Cc1[nH]c2c(N3CCCCC3)c(-c3ccccc3)nn2c(=O)c1-c1ccc2[nH]cnc2c1 [Compound 267, 6-(1H-benzo[d]imidazol-5-yl)-5-methyl-2-phenyl-3-(piperidin-1-yl)pyrazolo[1,5-a]pyrimidin-7(4H)-one]",< 100
12,"Cc1[nH]c2c(N3CCCCC3)c(-c3ccccc3)nn2c(=O)c1-c1ccc2[nH]c(N)nc2c1 [Compound 268, 6-(2-amino-1H-benzo[d]imidazol-5-yl)-5-methyl-2-phenyl-3-(piperidin-1-yl)pyrazolo[1,5-a]pyrimidin-7(4H)-one]",< 100
13,"COc1ccc(-c2c(C)n(C)c3c(N4CCCCC4)c(-c4ccccc4)nn3c2=O)cc1 [Compound 269, 6-(4-methoxyphenyl)-4,5-dimethyl-2-phenyl-3-(piperidin-1-yl)pyrazolo[1,5-a]pyrimidin-7(4H)-one]",< 100
14,"Cc1c(-c2ccc(O)cc2)c(=O)n2nc(-c3ccccc3)c(-c3cccs3)c2n1C [Compound 271, 6-(4-hydroxyphenyl)-4,5-dimethyl-2-phenyl-3-(thiophen-2-yl)pyrazolo[1,5-a]pyrimidin-7(4H)-one]",< 100
15,"COc1ccc(-c2c(C)[nH]c3c(N4CCC(F)(F)C4)c(-c4ccccc4)nn3c2=O)cc1 [Compound 272, 3-(3,3-difluoropyrrolidin-1-yl)-6-(4-methoxyphenyl)-5-methyl-2-phenylpyrazolo[1,5-a]pyrimidin-7(4H)-one]",< 100
16,"O=c1c(-c2ccc(O)cc2)c(O)[nH]c2c(-c3ccccc3)c(-c3ccccc3)nn12 [Compound 273, 5-hydroxy-6-(4-hydroxyphenyl)-2,3-diphenylpyrazolo[1,5-a]pyrimidin-7(4H)-one]",< 100
17,"COc1ccc(-c2c(O)n(C)c3c(-c4ccccc4)c(-c4ccccc4)nn3c2=O)cc1 [Compound 274, 5-hydroxy-6-(4-methoxyphenyl)-4-methyl-2,3-diphenylpyrazolo[1,5-a]pyrimidin-7(4H)-one]",< 100
18,"O=c1c(-c2ccc3ncccc3c2)c(O)[nH]c2c(-c3ccccc3)c(-c3ccccc3)nn12 [Compound 275, 5-hydroxy-2,3-diphenyl-6-(quinolin-6-yl)pyrazolo[1,5-a]pyrimidin-7(4H)-one]",< 100
19,"Nc1[nH]c2c(-c3ccccc3)c(-c3ccccc3)nn2c(=O)c1-c1ccc(O)cc1 [Compound 276, 5-amino-6-(4-hydroxyphenyl)-2,3-diphenylpyrazolo[1,5-a]pyrimidin-7(4H)-one]",< 100
20,"Cc1[nH]c2c(C3CCCCC3)c(-c3ccccc3)nn2c(=O)c1-c1ccc2ncccc2c1 [Compound 277, 3-cyclohexyl-5-methyl-2-phenyl-6-(quinolin-6-yl)pyrazolo[1,5-a]pyrimidin-7(4H)-one]",< 100
21,"CNCc1[nH]c2c(-c3ccccc3)c(-c3ccccc3)nn2c(=O)c1-c1ccc2ncccc2c1 [Compound 278, 5-((methylamino)methyl)-2,3-diphenyl-6-(quinolin-6-yl)pyrazolo[1,5-a]pyrimidin-7(4H)-one]",< 100
22,"COc1ccc(-c2c(O)[nH]c3c(C4=CCCCC4)c(-c4ccccc4)nn3c2=O)cc1 [Compound 279, 3-(cyclohex-1-en-1-yl)-5-hydroxy-6-(4-methoxyphenyl)-2-phenylpyrazolo[1,5-a]pyrimidin-7(4H)-one]",< 100
23,"Cc1[nH]c2c(-c3ccccc3)c(-c3cc[nH]n3)nn2c(=O)c1-c1ccc2ncccc2c1 [Compound 280, 5-methyl-3-phenyl-2-(1H-pyrazol-3-yl)-6-(quinolin-6-yl)pyrazolo[1,5-a]pyrimidin-7(4H)-one]",< 100
24,"Cn1c(CO)c(-c2ccc3ncccc3c2)c(=O)n2nc(-c3ccccc3)c(-c3ccccc3)c12 [Compound 281, 5-(hydroxymethyl)-4-methyl-2,3-diphenyl-6-(quinolin-6-yl)pyrazolo[1,5-a]pyrimidin-7(4H)-one]",< 100
25,Cc1[nH]c2c(C3=CC(O)CCC3)c(-c3ccccc3)nn2c(=O)c1-c1ccc2ncccc2c1 (stereo not drawn) [Compound 282],< 100
26,"COc1ccc(-c2c(NC(=O)CN)[nH]c3c(-c4ccccc4)c(-c4ccccc4)nn3c2=O)cc1 [Compound 283, 2-amino-N-(6-(4-methoxyphenyl)-7-oxo-2,3-diphenyl-4,7-dihydropyrazolo[1,5-a]pyrimidin-5-yl)acetamide]",< 100
27,"COc1ccc(-c2c(Nc3nnc(C)s3)[nH]c3c(-c4ccccc4)c(-c4ccccc4)nn3c2=O)cc1 [Compound 285, 6-(4-methoxyphenyl)-5-((5-methyl-1,3,4-thiadiazol-2-yl)amino)-2,3-diphenylpyrazolo[1,5-a]pyrimidin-7(4H)-one]",< 100
